We go through 33 compounds from the SangsterLogP compilation.

Structures are written as SMILES.

Assay in one data set: not given
What is called logP is the decadic logarithm of the partition coefficient of the neutral form, usually between octanol and water. A lower logP goes with lower lipophilicity. Turning to `CN(C)C(=O)Oc1cccc(Cl)c1`, the lipophilicity (logP) was 2.26. Still for that read-out and setting: with `CNC(=O)Oc1cccc(N(C)C)c1` the figure was 1.64; with `CC(=O)c1ccc(OC(=O)N(C)C)cc1`, 1.23. Same read-out and setting: with `Cc1ccc(OC(=O)N(C)C)cc1` the figure was 2.1; with `CCOc1cccc(OC(=O)NC)c1`, 1.82. On the same count and under the same terms, with `CNC(=O)Oc1cccc([N+](=O)[O-])c1` the figure was 1.37. As to `CNC(=O)Oc1ccc(I)cc1`, the lipophilicity (logP) worked out at 2.34.

As for `CCc1ccc(OC(=O)N(C)C)cc1`, the logP turned out to be 2.58.

Turning to `CC(C)c1ccc(OC(=O)N(C)C)cc1`, the log partition coefficient (logP) came out at 3.07. Same read-out and setting: as for `CN(C)C(=O)Oc1ccc(Cl)cc1`, the figure is 2.23; as for `CCOc1ccc(OC(=O)NC)cc1`, 1.75.

In the case of `CNC(=O)Oc1cccc(OC)c1`, the lipophilicity (logP) amounted to 1.34. `CNC(=O)Oc1ccc(OC)cc1` came in with a logP of 1.23.

Take `CNC(=O)Oc1ccc(C)cc1`: the logP was 1.73.

The compound `CNC(=O)Oc1cccc(C#N)c1` registered a logP of 1.01. Same read-out and setting: as for `CCC(C)c1ccc(OC(=O)N(C)C)cc1` (stereo not drawn), the figure is 3.6; as for `CN(C)C(=O)Oc1ccc([N+](=O)[O-])cc1`, 1.54. The same measure, in the same setting: with `CN(C)C(=O)Oc1ccc(F)cc1` the figure was 1.65; with `CNC(=O)Oc1ccc(F)cc1`, 1.35; with `CNC(=O)Oc1cccc(C)c1`, 1.73. On the same count and under the same terms, with `CCc1ccc(OC(=O)NC)cc1` the figure was 2.27; with `CCC(=O)c1cccc(OC(=O)NC)c1`, 1.51. `CNC(=O)Oc1cccc(C(C)=O)c1`: the logP came out at 0.97. `CCc1cccc(OC(=O)NC)c1` gave a logP of 2.23. Same read-out and setting: with `CNC(=O)Oc1cccc(I)c1` the figure was 2.33.

A short description of the next data set: method code SF-HPLC, from DOI: 10.1248/cpb.44.1338.
`CN(C)C(=O)Oc1cccc([N+](=O)[O-])c1`: the logP was 1.56. Take `CN(C)C(=O)Oc1ccc(Br)cc1`: the logP amounted to 2.46. Still for that read-out and setting: as for `CN(C)C(=O)Oc1cccc(F)c1`, the figure is 1.75; as for `CN(C)C(=O)Oc1cccc(N(C)C)c1`, 1.93. In turn, `CN(C)C(=O)Oc1cccc(C#N)c1` showed a lipophilicity (logP) of 1.23.

Compound `CCc1cccc(OC(=O)N(C)C)c1` gave a lipophilicity (logP) of 2.47. On the same count and under the same terms, with `CN(C)C(=O)Oc1ccc(C#N)cc1` the figure was 1.21; with `CCCc1ccc(OC(=O)N(C)C)cc1`, 3.15.
